Experimental data: patent publication US5436273A, “Psychoactive propargylamine derivatives used in the treatment of anxiety, psychotic states or aggression” (Lowchol Scientific, Inc., priority 1993, dated 1995)
Read-outs that look alike come from different tables or passages of the source.

Tests used:
[1] = system: spontaneous motor activity in rats; test: Inhibition of spontaneous motor activity in rats; assay type: in vivo, Sprague Dawley rats; conditions: for ED50: Rattus norvegicus, ip, 0.5 h, i.p., 30 minutes
Experimental: Two animals are studied simultaneously, one treated and one control. After a 2 hour period of acclimatization to the room, a first activity count of 10 minutes duration is perfomed. The compound to be studied is then administered i.p. and the spontaneous activity is reevaluated 30 minutes later over a period of 10 minutes.
5. Inhibition of Spontaneous Motor Activity in Rats
The method is the same as described above for mice, except that because of the size of the animals (Sprague Dawley rats; 300 g), the test and control animals are not evaluated simultaneously, but alternatively.

[2] = system: isolation induced aggressive behavior in mice; test: Inhibition of isolation induced fighting behavior in mice; assay type: in vivo, CD #1 mice; conditions: i.p.
Experimental: 1. Inhibition of Isolation Induced Fighting Behavior in Mice
After this period of confinement, the animals usually develop a marked intraspecific aggressive behavior when they are placed in the same cage.
The compound to be studied is administered i.p. to the selected groups (N=8 pairs/dose×5 doses) and the aggressive behavior is tested again 30 minutes later. […] A one week washout period is allowed between treatments.

[3] = system: exploratory behavior in rats; test: Inhibition of exploratory behavior in rats (hole poking); assay type: in vivo, Sprague-Dawley rats; conditions: rats
Experimental: 8. Inhibition of Exploratory Behavior in Rats (Hole Poking).
This test is done with Sprague-Dawley male rats of about 300 g. Activity is evaluated with a […] XYZ activity cage connected to a […] […] DCM-4. A perforated plate (16 holes of 2-5 cm diameter) is placed in the enclosure and on the activity case to register vertical activity. The number of times the rat placed his snout into the holes during a 10 minute period is recorded. The test was started 30 minutes after the interperitoneal injection of the compound to be studied.
The results which are reported in Table 8 are expressed in terms of the dose required to diminish by 50% the exploratory behavior, with reference to animals injected with the carrier only. Diazepam and buspirone are used as standards.

C#CC(C)N (stereo not shown) [Compound 3, 2-Amino-3-butyne]
inhibition of spontaneous motor activity (in words) [1]: of comparable activity in rats
ED50 ([1]; read-out: ED50, clockwise revolutions): 4.1 ± 1.4 mg/kg
ED50 ([1]; read-out: ED50, counterclockwise revolutions): 3.7 ± 1.7 mg/kg
ED50 ([1]; read-out: ED50, horizontal activity): 4.2 ± 1.8 mg/kg
ED50 ([1]; read-out: ED50, movement time): 5.5 ± 2.3 mg/kg
ED50 ([1]; read-out: ED50, number of movements): 11.8 ± 7.9 mg/kg
ED50 ([1]; read-out: ED50, number of stereotypic movements): 5.2 ± 2.4 mg/kg
ED50 ([1]; read-out: ED50, stereotypy time): 4.2 ± 1.7 mg/kg
ED50 ([1]; read-out: ED50, total distance): 4.9 ± 2 mg/kg
ED50 ([2]; Mus musculus, ip, 0.5 h, read-out: ED50 (dose that suppressed aggressive behavior in 50% of the animals), 30 minutes after administration, probit analysis): 8 mg/kg
inhibition of aggressive behavior (in words) ([2]; mice): particularly potent inhibitors
ED50 ([3]; Rattus norvegicus, ip, 0.5 h, i.p., 30 minutes, read-out: dose required to diminish by 50% the exploratory behavior): 4.6 ± 2.6 mg/kg
inhibition of exploratory behavior (in words) [3]: more potent, in this respect, than diazepam but they rapidly lose their ability to produce this effect after the first administration
